{"source": "patent US20060009432A1", "about": "“Use of neurosteroids to treat neuropathic pain” (priority 2004, published 2006)", "key": {"[1]": {"system": "chronic constriction injury (CCI) of the sciatic nerve, rats", "assay": "Cold allodynia (acetone application) in chronic constriction injury model", "type": "in vivo, rat", "details": "for Average time to withdrawal (s.e.m.): CCI rats", "experimental": "Unilateral sciatic nerve injury was produced under deep anesthesia with i.p injection of sodium pentobarbital (Mebumal, 60 mg/kg), as described by Bennett and Xie (Pain, 33, 87-107(1988)). The common sciatic nerve was exposed and freed for about 10 mm at mid-thigh level. Four ligatures (Ethicon, 4.0 plain gut) were tied loosely around the nerve with about 1-mm spacing creating a chronic constriction injury (CCl), and the incision was closed.\nBrisk foot withdrawal in response to acetone application was measured based on the method described by Choi et al. The acetone bubble was gently brought in touch with the plantar surface around the center, and the acetone quickly spread over the central part of the plantar surface of the foot. Applications were made five times (once every 5 min) to each paw. The score for each application was recorded as follows: foot withdrawal was scored as positive (1) and lack of withdrawal as negative (O). The total score (0 to 5) was taken as index for cold sensitivity of the foot […]. This approximates pain from a non-noxious stimulus, i.e. allodynia.\nCold allodynia response was measured 15, 30, 45, 60, 90 and 120 minutes after i.p. administration of ganaxolone (at 1 mg/kg, 3 mg/kg or 10 mg/kg) as well as prior to administration of the neurosteroid and prior to infliction of the neural injury. Table 1 provides the resulting measurement of cold allodynia response in groups of six rats per dosage level. The abbreviation “s.e.m.” means standard error mean."}, "[2]": {"system": "L5/L6 spinal nerve ligation (SNL) rats", "assay": "Tactile allodynia (von Frey) in spinal nerve ligation model", "type": "in vivo, rat", "details": "SNL rats", "experimental": "(A) L5/L6 spinal nerve ligation (SNL) was performed as described by Kim and Chung (Pain, 50,355-363(1992)). Animals (mice or rats) were anesthetized with halothane. An incision was made lateral to the lumbar spine. The right L5 and L6 spinal nerves were isolated and tightly ligated distal to the dorsal root ganglion. The incision was closed, and animals were allowed to recover for 10 days. Sham-operated animals were prepared in an identical fashion except that the spinal nerves were not ligated.\nThe protocol was repeated until three changes in behavior were determined. The maximal cut-off size values used were 15 g for rats and 3.5 g for mice. The 50% paw withdrawal threshold was determined as 10Xf+kδ/10,000, where Xf=the value of the last von Frey filament used, k=Dixon value for the positive/negative pattern, and δ=the logarithmic difference between stimuli.\nTactile allodynia response was measured 15, 30, 45, 60, 90 and 120 minutes after i.p. administration of ganaxolone (at 1 mg/kg, 3 mg/kg, 6 mg/kg or 10 mg/kg). Table 2 provides the resulting measurement of tactile allodynia response in groups of five rats per dosage level."}}, "data": [{"smiles": "CC(=O)[C@H]1CC[C@H]2[C@@H]3CC[C@H]4C[C@](C)(O)CC[C@]4(C)[C@H]3CC[C@]12C", "note": "[ganaxolone, 3α-hydroxy-3β-methyl-5α-pregnan-20-one]", "values": [{"measurement": "Average time to withdrawal (s.e.m.)", "setting": "[1]; 1 mg/kg i.p., 15 min after administration", "value": "7.40 (1.02)"}, {"measurement": "Average time to withdrawal (s.e.m.)", "setting": "[1]; 1 mg/kg i.p., 30 min after administration", "value": "6.12 (1.72)"}, {"measurement": "Average time to withdrawal (s.e.m.)", "setting": "[1]; 1 mg/kg i.p., 45 min after administration", "value": "5.07 (1.14)"}, {"measurement": "Average time to withdrawal (s.e.m.)", "setting": "[1]; 1 mg/kg i.p., 60 min after administration", "value": "2.59 (0.47)"}, {"measurement": "Average time to withdrawal (s.e.m.)", "setting": "[1]; 1 mg/kg i.p., 90 min after administration", "value": "3.66 (0.47)"}, {"measurement": "Average time to withdrawal (s.e.m.)", "setting": "[1]; 1 mg/kg i.p., 120 min after administration", "value": "3.16 (0.26)"}, {"measurement": "Average time to withdrawal (s.e.m.)", "setting": "[1]; 3 mg/kg i.p., 15 min after administration", "value": 6.77}, {"measurement": "Average time to withdrawal (s.e.m.)", "setting": "[1]; 3 mg/kg i.p., 30 min after administration", "value": 13.03}, {"measurement": "Average time to withdrawal (s.e.m.)", "setting": "[1]; 3 mg/kg i.p., 45 min after administration", "value": 11.12}, {"measurement": "Average time to withdrawal (s.e.m.)", "setting": "[1]; 3 mg/kg i.p., 60 min after administration", "value": 11.69}, {"measurement": "Average time to withdrawal (s.e.m.)", "setting": "[1]; 3 mg/kg i.p., 90 min after administration", "value": 10.26}, {"measurement": "Average time to withdrawal (s.e.m.)", "setting": "[1]; 3 mg/kg i.p., 120 min after administration", "value": 10.30}, {"measurement": "Average time to withdrawal (s.e.m.)", "setting": "[1]; 10 mg/kg i.p., 15 min after administration", "value": 13.86}, {"measurement": "Average time to withdrawal (s.e.m.)", "setting": "[1]; 10 mg/kg i.p., 30 min after administration", "value": 15.35}, {"measurement": "Average time to withdrawal (s.e.m.)", "setting": "[1]; 10 mg/kg i.p., 45 min after administration", "value": 13.34}, {"measurement": "Average time to withdrawal (s.e.m.)", "setting": "[1]; 10 mg/kg i.p., 60 min after administration", "value": 10.38}, {"measurement": "Average time to withdrawal (s.e.m.)", "setting": "[1]; 10 mg/kg i.p., 90 min after administration", "value": 8.59}, {"measurement": "Average time to withdrawal (s.e.m.)", "setting": "[1]; 10 mg/kg i.p., 120 min after administration", "value": 8.87}, {"measurement": "Effect on average time to withdrawal", "setting": "[1]; summary of Table 1, CCI rats", "value": "increases the average time to withdrawal"}, {"measurement": "% Activity ± s.e.m. (tactile allodynia)", "setting": "[2]; 1 mg/kg i.p., 15 min", "value": "2.83 ± 2.83", "unit": "%"}, {"measurement": "% Activity ± s.e.m. (tactile allodynia)", "setting": "[2]; 1 mg/kg i.p., 30 min", "value": "6.35 ± 3.38", "unit": "%"}, {"measurement": "% Activity ± s.e.m. (tactile allodynia)", "setting": "[2]; 1 mg/kg i.p., 45 min", "value": "3.20 ± 2.21", "unit": "%"}, {"measurement": "% Activity ± s.e.m. (tactile allodynia)", "setting": "[2]; 1 mg/kg i.p., 60 min", "value": "2.41 ± 1.53", "unit": "%"}, {"measurement": "% Activity ± s.e.m. (tactile allodynia)", "setting": "[2]; 1 mg/kg i.p., 90 min", "value": "2.41 ± 1.53", "unit": "%"}, {"measurement": "% Activity ± s.e.m. (tactile allodynia)", "setting": "[2]; 1 mg/kg i.p., 120 min", "value": "3.06 ± 3.06", "unit": "%"}, {"measurement": "% Activity ± s.e.m. (tactile allodynia)", "setting": "[2]; 3 mg/kg i.p., 15 min", "value": "9.69 ± 4.56", "unit": "%"}, {"measurement": "% Activity ± s.e.m. (tactile allodynia)", "setting": "[2]; 3 mg/kg i.p., 30 min", "value": "13.76 ± 6.54", "unit": "%"}, {"measurement": "% Activity ± s.e.m. (tactile allodynia)", "setting": "[2]; 3 mg/kg i.p., 45 min", "value": "14.02 ± 5.14", "unit": "%"}, {"measurement": "% Activity ± s.e.m. (tactile allodynia)", "setting": "[2]; 3 mg/kg i.p., 60 min", "value": "11.56 ± 3.01", "unit": "%"}, {"measurement": "% Activity ± s.e.m. (tactile allodynia)", "setting": "[2]; 3 mg/kg i.p., 90 min", "value": "9.19 ± 2.67", "unit": "%"}, {"measurement": "% Activity ± s.e.m. (tactile allodynia)", "setting": "[2]; 3 mg/kg i.p., 120 min", "value": "9.64 ± 1.63", "unit": "%"}, {"measurement": "% Activity ± s.e.m. (tactile allodynia)", "setting": "[2]; 6 mg/kg i.p., 15 min", "value": "26.79 ± 9.34", "unit": "%"}, {"measurement": "% Activity ± s.e.m. (tactile allodynia)", "setting": "[2]; 6 mg/kg i.p., 30 min", "value": "30.85 ± 6.77", "unit": "%"}, {"measurement": "% Activity ± s.e.m. (tactile allodynia)", "setting": "[2]; 6 mg/kg i.p., 45 min", "value": "47.30 ± 14.99", "unit": "%"}, {"measurement": "% Activity ± s.e.m. (tactile allodynia)", "setting": "[2]; 6 mg/kg i.p., 60 min", "value": "34.17 ± 15.78", "unit": "%"}, {"measurement": "% Activity ± s.e.m. (tactile allodynia)", "setting": "[2]; 6 mg/kg i.p., 90 min", "value": "26.91 ± 15.45", "unit": "%"}, {"measurement": "% Activity ± s.e.m. (tactile allodynia)", "setting": "[2]; 6 mg/kg i.p., 120 min", "value": "9.32 ± 2.85", "unit": "%"}, {"measurement": "% Activity ± s.e.m. (tactile allodynia)", "setting": "[2]; 10 mg/kg i.p., 15 min", "value": "47.91 ± 21.86", "unit": "%"}, {"measurement": "% Activity ± s.e.m. (tactile allodynia)", "setting": "[2]; 10 mg/kg i.p., 30 min", "value": "79.27 ± 18.71", "unit": "%"}, {"measurement": "% Activity ± s.e.m. (tactile allodynia)", "setting": "[2]; 10 mg/kg i.p., 45 min", "value": "70.60 ± 18.42", "unit": "%"}, {"measurement": "% Activity ± s.e.m. (tactile allodynia)", "setting": "[2]; 10 mg/kg i.p., 60 min", "value": "64.61 ± 18.63", "unit": "%"}, {"measurement": "% Activity ± s.e.m. (tactile allodynia)", "setting": "[2]; 10 mg/kg i.p., 90 min", "value": "24.81 ± 9.53", "unit": "%"}, {"measurement": "% Activity ± s.e.m. (tactile allodynia)", "setting": "[2]; 10 mg/kg i.p., 120 min", "value": "4.38 ± 1.81", "unit": "%"}, {"measurement": "Sedation", "setting": "[2]; 10 mg/kg i.p., tactile allodynia test", "value": "sedated four of the five rats for about one hour"}]}]}
